Earlier results, collected in paper PMC12661886, “A phase 1/2 study of DS-1594 menin inhibitor in relapsed/refractory acute leukemias” (Journal of Hematology & Oncology, 2025).
pIC50: −log10 of the molar value.

Key:
QT and QTc intervals = system: QT and QTc intervals; design: method as in Investigator Brochure; conditions: predicted by exposure-response analysis; ref Investigator Brochure
[1] = system: KMT2A-r and NPM1mut R/R AML; design: method as in doi:10.1182/blood-2024-194827
[2] = system: MV4;11 cells harboring KMT2A-r with CRISPR-Cas9 induced menin mutations; design: method as in doi:10.1182/blood-2024-208887; conditions: menin mutations except M327
[3] = system: cell lines of KMT2A-r leukemia harboring MEN1-M327I or MEN1-T349M; design: method as in PMID 38905635
[4] = system: R/R KMT2A-r ALL/AML/MPAL or R/R NPM1mut AML
[5] = system: R/R NPM1mut, NUP98-r, KMT2A-r AML; design: method as in earlier work

## COc1cc(-c2ccc(CN[C@H]3C[C@@H](O)[C@@H](N(C)c4ncnc5sc(CC(F)(F)F)cc45)C3)cc2)nnc1OC [DS-1594a]
QT and QTc intervals
  plasma concentration to induce QTc interval prolongation by 10 milliseconds: around 1000 ng/mL

## C=C1C[C@@H]2CC[C@H]1[C@@H](C(=O)N1CCC3(CC1)CN(c1ncncc1Oc1ccc(F)cc1C(=O)N(C(C)C)C(C)C)C3)N2 [Enzomenib]
[1]
  All grade DS, patients: 10.7%
  Grade 3 or higher DS, patients: about 7%
[1]; 200 mg or 300 mg BID
  CR + CRh rate, KMT2A-r R/R AML: 30%
  CR + CRh rate, NPM1mut R/R AML: 47%
  ORR, KMT2A-r R/R AML: 65%
  ORR, NPM1mut R/R AML: 59%

## CCN(C(=O)c1cc(F)ccc1Oc1nncnc1N1CCC2(C1)CN([C@H](CCCN(C)CCOC)C(C)C)C2)C(C)C [bleximenib]
[2]
  pIC50: 8.48
[3]
  efficacy in menin-mutant cell lines: showed efficacy

## CCN(C(=O)c1cc(F)ccc1Oc1cncnc1N1CC2(CCN(C[C@H]3CC[C@H](NS(=O)(=O)CC)CC3)CC2)C1)C(C)C [revumenib]
[4]
  grade 3 or higher QTc prolongation, patients: 14%
  median DOR, CR + CRh: 6.4 months
  median DOR, KMT2A-r acute leukemias with CR/CRh: about 6 months
  median duration of response (DOR), patients with an ORR: 4.3 months
[4]; AUGMENT 101
  CR + CRh rate: 23%
  overall response rate (ORR): 63%
[4]; AUGMENT-101
  grade 3 or higher differentiation syndrome, patients: 16%
[4]; AUGMENT-101 study
  overall DS rate: about 28%
[5]; SAVE regimen
  CR/CRh rate: 48%
  consolidated with an HSCT: 39%
[5]; about 9 months median follow-up
  median duration of CR/CRh: not achieved
[5]; combination with oral decitabine-cedazuridine and venetoclax
  ORR: 82%

## CNc1nc(NC2CCN(Cc3ccc4c(cc(C#N)n4C[C@H](C)N4CCN(S(C)(=O)=O)CC4)c3C)CC2)c2cc(CC(F)(F)F)sc2n1 [ziftomenib]
[2]
  pIC50: 7.65
R/R AML
  median DOR: 6.6 months
  responses in the dose finding phase: no significant responses were observed
R/R AML; 600 mg dose
  CR/CRh rate, R/R NPM1mut AML: 35%
  patients achieving CR/CRh, NPM1mut AML previously treated with venetoclax: 5/7
R/R AML; KOMET phase 1a and 1b (n = 83)
  all-grade DS: 21%
  grade 3 DS: 14%
R/R AML; RP2D 600 mg/day, phase 1b
  CR/CRh rate: 25%
